# From patent US8148070B2, “Genetic polymorphisms associated with coronary events and drug response, methods of detection and uses thereof” (Celera Corporation, priority 2007, dated 2012)
# Tested on: CARE patients
# Experiment: CARE trial: pravastatin vs placebo, recurrent MI in subgroups defined by KIF6 (and neighbouring SNP) genotype
# Assay type: in vivo, human
# Conditions: for HR, Unadjusted (recurrent MI, pravastatin vs placebo): placebo = ref; for OR for minor hom / OR for carrier (Min + Het) / OR for Het / OR for major hom: risk of recurrent MI
# Description: In order to identify genetic markers associated with CHD (particularly MI, including recurrent MI) or the effect of statin treatment on CHD, samples were genotyped in two clinical trials: the Cholesterol and Recurrent Events (CARE) study (a randomized multicentral double-blinded trial on secondary prevention of MI with pravastatin (Pravachol®); Sacks et al., Am. J. Cardiol. 68: 1436-1446 [1991]), and the West of Scotland Coronary Prevention Study (WOSCOPS) study (a randomized multicentral double-blinded trial on primary prevention of CHD with pravastatin (Pravachol®); Shepherd et al., N Eng J Med 333 (20), pp. 1301-7, Nov. 16, 1995; Packard et al., N Eng J Med 343 (16), pp. 1148-55, Oct. 19, 2000).
# A well-documented MI was one of the enrollment criteria for entry into the CARE study. Patients were enrolled in the CARE trial from 80 participating study centers. […] Patients were randomized to receive either 40 mg of pravastatin once daily or a matching placebo. The primary endpoint of the trial was death from CHD or nonfatal MI and the median duration of follow-up was 5.0 years (range, 4.0 to 6.2 years). For this genetic study of CARE, a composite endpoint comprised of fatal or nonfatal recurrent MI was used.
# For genotyping SNPs in CARE patient samples, DNA was extracted from blood samples using conventional DNA extraction methods such as the QIAamp kit from Qiagen. Genotypes were obtained by a method similar to that described by Iannone (M. A. Iannone et al., Cytometry 39(2):131-140 [Feb. 1, 2000]; also described in section “SNP DETECTION REAGENTS,” supra). Briefly, target DNA was amplified by multiplex PCR, the amplified product was submitted to a multiplex oligo ligation assay (OLA), the specific ligated products were hybridized to unique universal “ZIP code” oligomer sequences covalently attached to Luminex xMAP® Multi-Analyte COOH Microspheres, and these hybridization products/microspheres were detected in a rapid automated multiplex system (Luminex 100 instrument).
# In analyzing the CARE patients, statistical analysis was performed with SAS version 9. Cox proportional hazard models (Wald tests) were used in CARE to assess the association of genotype with both the risk of incident MI in the placebo arm and the effect of pravastatin on MI compared to placebo in subgroups defined by genotypes. In analyzing the WOSCOPS patients, a conditional logistic regression model was used in WOSCOPS given that the controls had been previously matched to the cases. The column entitled “On-trial MI” lists the number of patients who suffered a recurrent MI during the clinical trial period.
# HR stands for Hazard Ratio, which is a concept similar to Odds Ratio (OR). The HR in event-free survival analysis is the effect of an explanatory variable on the hazard or risk of an event. For examples, it describes the likelihood of developing MI based on comparison of rate of coronary events between carriers of the certain allele and noncarriers; therefore, HR=1.5 would mean that carriers of the certain allele have 50% higher risk of coronary events during the study follow up than non-carriers. HR can also describe the effect of statin therapy on coronary events based on comparison of rate of coronary events between patient treated with statin and patient treated with placebo (or other statin) in subgroups defined by SNP genotype; therefore, HR=0.5 would mean that, for example, carriers of the certain allele, had 50% reduction of coronary events by statin therapy as compared to placebo. In Table 6, p interaction values were calculated. An interaction (or effect modification) is formed when a third variable modifies the relation between an exposure and outcome. […] Genotype and drug interaction is present when the effect of statins (incidence rate of disease in statin-treated group, as compared to placebo) differs in patients with different genotypes. The hCV3054799 risk allele predicted risk of MI in CARE and was associated with odds of CHD in WOSCOPS. […]
compound,measurement,setting,value
"CC[C@H](C)C(=O)O[C@H]1C[C@H](O)C=C2C=C[C@H](C)[C@H](CC[C@@H](O)C[C@@H](O)CC(=O)O)[C@H]21 [Pravastatin, pravastatin]","HR, Adjusted (recurrent MI, pravastatin vs placebo)","AA (noncarriers), adjusted for conventional risk factors",0.80
same,On-trial MI,"AA, of 554 patients in the pravastatin arm",39 number of patients
same,"HR, Adjusted (recurrent MI, pravastatin vs placebo)","GG + GA (719Arg carriers), adjusted for age, smoking, hypertension, diabetes, BMI, LDL-C, HDL-C",0.63
same,On-trial MI,"GG + GA, of 810 patients in the pravastatin arm",64 number of patients
same,"HR, Unadjusted (recurrent MI, pravastatin vs placebo)",KIF6 Trp719Arg AA (noncarriers),0.86
same,"HR, Unadjusted (recurrent MI, pravastatin vs placebo)","KIF6 Trp719Arg GG + GA (719Arg carriers), 40 mg pravastatin once daily",0.63
same,reduction of relative risk of recurrent MI,"carriers of the 719Arg risk allele, pravastatin vs placebo",37%
same,risk reduction (coronary events),"noncarriers, pravastatin vs placebo, insignificant",20%
same,"OR, Effect of Pravastatin on MI and CHD","pravastatin vs placebo, hCV3054808 genotype AA",1.04
same,"OR, Effect of Pravastatin on MI and CHD","pravastatin vs placebo, hCV3054808 genotype AC",0.50
same,"OR, Effect of Pravastatin on MI and CHD","pravastatin vs placebo, hCV3054808 genotype CC",1.01
same,"OR, Effect of Pravastatin on MI and CHD","pravastatin vs placebo, hCV3054813 genotype CC",0.98
same,"OR, Effect of Pravastatin on MI and CHD","pravastatin vs placebo, hCV3054813 genotype CT",0.45
same,"OR, Effect of Pravastatin on MI and CHD","pravastatin vs placebo, hCV3054813 genotype TT",1.06
same,"OR, Effect of Pravastatin on MI and CHD","pravastatin vs placebo, hCV29992177 genotype AA",0.71
same,"OR, Effect of Pravastatin on MI and CHD","pravastatin vs placebo, hCV29992177 genotype GA",0.57
same,"OR, Effect of Pravastatin on MI and CHD","pravastatin vs placebo, hCV29992177 genotype GG",1.88
same,"OR, Effect of Pravastatin on MI and CHD","pravastatin vs placebo, hCV30225864 genotype CC",0.79
same,"OR, Effect of Pravastatin on MI and CHD","pravastatin vs placebo, hCV30225864 genotype CT",0.63
same,"OR, Effect of Pravastatin on MI and CHD","pravastatin vs placebo, hCV30225864 genotype TT",0.73
same,OR for minor hom,"pravastatin vs placebo, hCV792699 CC minor homozygotes",0.8127
same,OR for carrier (Min + Het),"pravastatin vs placebo, hCV792699 CC+CT carriers of minor allele",0.7089
same,OR for Het,"pravastatin vs placebo, hCV792699 CT heterozygotes",0.6534
same,OR for major hom,"pravastatin vs placebo, hCV792699 TT major homozygotes",0.8085
same,OR for major hom,"pravastatin vs placebo, hCV1650850 CC major homozygotes",0.7381
same,OR for Het,"pravastatin vs placebo, hCV1650850 GC heterozygotes",1.7143
same,OR for carrier (Min + Het),"pravastatin vs placebo, hCV1650850 GG+GC carriers of minor allele",1.7143
same,OR for minor hom,"pravastatin vs placebo, hCV3054766 AA minor homozygotes",0.4856
same,OR for carrier (Min + Het),"pravastatin vs placebo, hCV3054766 AA+AC carriers of minor allele",0.6695
same,OR for Het,"pravastatin vs placebo, hCV3054766 AC heterozygotes",0.7705
same,OR for major hom,"pravastatin vs placebo, hCV3054766 CC major homozygotes",0.9847
same,OR for minor hom,"pravastatin vs placebo, hCV3054789 AA minor homozygotes",1.0873
same,OR for carrier (Min + Het),"pravastatin vs placebo, hCV3054789 AA+AT carriers of minor allele",0.8227
same,OR for Het,"pravastatin vs placebo, hCV3054789 AT heterozygotes",0.7597
same,OR for major hom,"pravastatin vs placebo, hCV3054789 TT major homozygotes",0.6567
same,OR for major hom,"pravastatin vs placebo, hCV3054799 AA major homozygotes",0.8639
same,OR for Het,"pravastatin vs placebo, hCV3054799 GA heterozygotes",0.5818
same,OR for minor hom,"pravastatin vs placebo, hCV3054799 GG minor homozygotes",0.9215
same,OR for carrier (Min + Het),"pravastatin vs placebo, hCV3054799 GG+GA carriers of minor allele",0.6442
same,OR for major hom,"pravastatin vs placebo, hCV3054805 CC major homozygotes",0.9323
same,OR for Het,"pravastatin vs placebo, hCV3054805 GC heterozygotes",0.5933
same,OR for minor hom,"pravastatin vs placebo, hCV3054805 GG minor homozygotes",0.9317
same,OR for carrier (Min + Het),"pravastatin vs placebo, hCV3054805 GG+GC carriers of minor allele",0.6653
same,OR for minor hom,"pravastatin vs placebo, hCV3054808 AA minor homozygotes",1.037
same,OR for carrier (Min + Het),"pravastatin vs placebo, hCV3054808 AA+AC carriers of minor allele",0.6257
same,OR for Het,"pravastatin vs placebo, hCV3054808 AC heterozygotes",0.5292
same,OR for major hom,"pravastatin vs placebo, hCV3054808 CC major homozygotes",1.0056
same,OR for minor hom,"pravastatin vs placebo, hCV3054822 AA minor homozygotes",0.852
same,OR for carrier (Min + Het),"pravastatin vs placebo, hCV3054822 AA+AT carriers of minor allele",0.5778
same,OR for Het,"pravastatin vs placebo, hCV3054822 AT heterozygotes",0.5213
same,OR for major hom,"pravastatin vs placebo, hCV3054822 TT major homozygotes",0.9897
same,OR for minor hom,"pravastatin vs placebo, hCV3054829 CC minor homozygotes",0.9021
same,OR for carrier (Min + Het),"pravastatin vs placebo, hCV3054829 CC+CT carriers of minor allele",0.8052
same,OR for Het,"pravastatin vs placebo, hCV3054829 CT heterozygotes",0.783
same,OR for major hom,"pravastatin vs placebo, hCV3054829 TT major homozygotes",0.6064
same,OR for carrier (Min + Het),"pravastatin vs placebo, hCV15876373 CC+CT carriers of minor allele",0.9708
same,OR for Het,"pravastatin vs placebo, hCV15876373 CT heterozygotes",0.8241
same,OR for major hom,"pravastatin vs placebo, hCV15876373 TT major homozygotes",0.6881
same,OR for major hom,"pravastatin vs placebo, hCV29649182 CC major homozygotes",0.7223
same,OR for Het,"pravastatin vs placebo, hCV29649182 TC heterozygotes",0.7631
same,OR for minor hom,"pravastatin vs placebo, hCV29649182 TT minor homozygotes",1.7333
same,OR for carrier (Min + Het),"pravastatin vs placebo, hCV29649182 TT+TC carriers of minor allele",0.7818
same,OR for minor hom,"pravastatin vs placebo, hCV30388472 CC minor homozygotes",0.5175
same,OR for carrier (Min + Het),"pravastatin vs placebo, hCV30388472 CC+CT carriers of minor allele",0.6291
same,OR for Het,"pravastatin vs placebo, hCV30388472 CT heterozygotes",0.6798
same,OR for major hom,"pravastatin vs placebo, hCV30388472 TT major homozygotes",1.0182
same,OR for carrier (Min + Het),"pravastatin vs placebo, hCV30478067 AA+AG carriers of minor allele",0.6875
same,OR for Het,"pravastatin vs placebo, hCV30478067 AG heterozygotes",0.5153
same,OR for major hom,"pravastatin vs placebo, hCV30478067 GG major homozygotes",0.7461
same,OR for carrier (Min + Het),"pravastatin vs placebo, hCV31340487 CC+CT carriers of minor allele",1.1573
same,OR for Het,"pravastatin vs placebo, hCV31340487 CT heterozygotes",1.0761
same,OR for major hom,"pravastatin vs placebo, hCV31340487 TT major homozygotes",0.697
same,OR for carrier (Min + Het),"pravastatin vs placebo, hCV32202303 CC+CG carriers of minor allele",0.5857
same,OR for Het,"pravastatin vs placebo, hCV32202303 CG heterozygotes",0.6208
same,OR for major hom,"pravastatin vs placebo, hCV32202303 GG major homozygotes",0.7655
same,patients who had experienced another MI,"whole pravastatin-treated group, 5 years of follow-up",114 patients
